# From EP4477653A1 (Perha Pharmaceuticals, priority 2023, dated 2024)
# Where two headings read alike, the source gives them in different places.
# Tests used:
# [1] = molecular target: T1, human recombinant A3AR (expressed in HEK-293 cells) (Homo sapiens, UniProt P0DMS8); assay: Adenosine receptors antagonism assay (Eurofins), [125I]-AB-MECA radioligand competition; format: binding
# T1 construct: host or cells: HEK-293 cells
# T1 sequence (P0DMS8 1-318): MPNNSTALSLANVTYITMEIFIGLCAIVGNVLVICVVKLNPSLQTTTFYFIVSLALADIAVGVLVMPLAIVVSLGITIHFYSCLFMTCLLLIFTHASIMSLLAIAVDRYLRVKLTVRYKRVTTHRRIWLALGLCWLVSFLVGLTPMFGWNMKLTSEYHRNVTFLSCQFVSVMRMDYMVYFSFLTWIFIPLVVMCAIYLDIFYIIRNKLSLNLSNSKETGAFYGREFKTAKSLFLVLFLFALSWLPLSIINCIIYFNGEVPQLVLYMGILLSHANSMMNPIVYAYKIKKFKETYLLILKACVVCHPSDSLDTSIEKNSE
# Experimental: Assays were carried out at r.t. for 120 min. Compounds were initially tested at three concentrations (0.01, 0.1, 1 µM). […] IC50 values, which is the concentration causing a half-maximal inhibition of control specific binding, and Hill coefficients (nH) were determined by non-linear regression analysis of the competition curves generated with mean replicate values using Hill equation curve fitting. The inhibition constants (Ki) were calculated using the Cheng Prusoff equation.
# LogD (HPLC) = format: physicochemical; settings: by HPLC; Table 2
# [2] = [125I]-AB-MECA 0.15 nM, r.t., 120 min; IC50 from dose-response curves; read-out: Potency Class A3AR
# [3] = read-out: Potency Class A3AR; [125I]-AB-MECA 0.15 nM, r.t., 120 min; IC50 from dose-response curves
"IC50 [1, 2] [nM]",chromatographic logD (LogD (HPLC)),Structure (SMILES),"IC50 [1, 3] [nM]"
10 to 100,,"c1ccc(CNc2cc(NCC3CC3)nn3c(C4CC4)nnc23)nc1 [compound 203, 3-cyclopropyl-N6-(cyclopropylmethyl)-N8-(pyridin-2-ylmethyl)-[1,2,4]triazolo[4,3-b]pyridazine-6,8-diamine]",
1 to 10,,"c1ccc(CNc2cc(NCC3CCC3)nn3c(C4CC4)nnc23)nc1 [compound 204, N6-(cyclobutylmethyl)-3-cyclopropyl-N8-(pyridin-2-ylmethyl)-[1,2,4]triazolo[4,3-b]pyridazine-6,8-diamine]",
1 to 10,,"CC1(CNc2cc(NCc3ccccn3)c3nnc(C4CC4)n3n2)CCC1 [compound 206, 3-cyclopropyl-N6-((1-methylcyclobutyl)methyl)-N8-(pyridin-2-ylmethyl)-[1,2,4]triazolo[4,3-b]pyridazine-6,8-diamine]",
1 to 10,,"c1ccc(CNc2cc(NCc3ccoc3)nn3c(C4CC4)nnc23)nc1 [compound 209, 3-cyclopropyl-N6-(furan-3-ylmethyl)-N8-(pyridin-2-ylmethyl)-[1,2,4]triazolo[4,3-b]pyridazine-6,8-diamine]",
1 to 10,,"c1ccc(CNc2cc(NCc3cccs3)nn3c(C4CC4)nnc23)nc1 [compound 210, 3-cyclopropyl-N8-(pyridin-2-ylmethyl)-N6-(thiophen-2-ylmethyl)-[1,2,4]triazolo[4,3-b]pyridazine-6,8-diamine]",
10 to 100,,"CC[C@H](CO)Nc1cc(NCc2ccccn2)c2nnc(C3CC3)n2n1 [compound 211, (R)-2-((3-cyclopropyl-8-((pyridin-2-ylmethyl)amino)-[1,2,4]triazolo[4,3-b]pyridazin-6-yl)amino)butan-1-ol]",
10 to 100,,"CC[C@@H](CO)Nc1cc(NCc2ccccn2)c2nnc(C3CC3)n2n1 [compound 212, (S)-2-((3-cyclopropyl-8-((pyridin-2-ylmethyl)amino)-[1,2,4]triazolo[4,3-b]pyridazin-6-yl)amino)butan-1-ol]",
100 to 1000,,"c1ccc(CNc2cc(N[C@@H]3CCOC3)nn3c(C4CC4)nnc23)nc1 [compound 213, (R)-3-cyclopropyl-N8-(pyridin-2-ylmethyl)-N6-(tetrahydrofuran-3-yl)-[1,2,4]triazolo[4,3-b]pyridazine-6,8-diamine]",
1 to 10,,"CCC(CC)Nc1cc(NCc2cccnn2)c2nnc(C3CC3)n2n1 [compound 216, 3-cyclopropyl-N6-(pentan-3-yl)-N8-(pyridazin-3-ylmethyl)-[1,2,4]triazolo[4,3-b]pyridazine-6,8-diamine]",
1 to 10,,"c1ccc(CNc2cc(NCc3ccsc3)nn3c(C4CC4)nnc23)nc1 [compound 218, 3-cyclopropyl-N8-(pyridin-2-ylmethyl)-N6-(thiophen-3-ylmethyl)-[1,2,4]triazolo[4,3-b]pyridazine-6,8-diamine]",

# The remaining lines, values behind:
Structure (SMILES),"IC50 [1, 2] [nM]",chromatographic logD (LogD (HPLC)),"IC50 [1, 3] [nM]"
"COC1CCC(Nc2cc(NCc3ccccc3)c3nnc(C(C)C)n3n2)CC1 (racemic) [compound 120, N8-benzyl-3-isopropyl-N6-(4-methoxycyclohexyl)-[1,2,4]triazolo[4,3-b]pyridazine-6,8-diamine]",100 to 1000,3.09,
"CC(C)c1nnc2c(NCc3ccccc3)cc(NC3CCCCC3O)nn12 (racemic) [compound 134, racemic trans-2-[[8-(benzylamino)-3-isopropyl-[1,2,4]triazolo[4,3-b]pyridazin-6-yl]amino]cyclohexanol]",,2.73,10 to 100
"CC(C)c1nnc2c(NCc3ccccc3)cc(NCC3CCCO3)nn12 (racemic) [compound 142, N8-benzyl-3-isopropyl-N6-(tetrahydrofuran-2-ylmethyl)-[1,2,4]triazolo[4,3-b]pyridazine-6,8-diamine]",100 to 1000,2.87,
"CC(C)c1nnc2c(NCc3ccccc3)cc(NC3CCc4ccccc43)nn12 (racemic) [compound 146, N8-benzyl-N6-indan-1-yl-3-isopropyl-[1,2,4]triazolo[4,3-b]pyridazine-6,8-diamine]",10 to 100,4.1,
"CC(C)c1nnc2c(NCc3ccccc3)cc(N[C@H]3CC[C@H](O)CC3)nn12 [(135), racemic trans-4-[[8-(benzylamino)-3-isopropyl-[1,2,4]triazolo[4,3-b]pyridazin-6-yl]amino]cyclohexanol]",,2.22,
"CC(C)c1nnc2c(NCc3ccccc3)cc(NC3CCC3)nn12 [compound 117, N8-benzyl-N6-cyclobutyl-3-isopropyl-[1,2,4]triazolo[4,3-b]pyridazine-6,8-diamine]",10 to 100,3.47,
"CC(C)c1nnc2c(NCc3ccccc3)cc(NC3CCCC3)nn12 [compound 118, N8-benzyl-N6-cyclopentyl-3-isopropyl-[1,2,4]triazolo[4,3-b]pyridazine-6,8-diamine]",1 to 10,3.84,
"CC(C)c1nnc2c(NCc3ccccc3)cc(NC3CCCCC3)nn12 [compound 119, N8-benzyl-N6-cyclohexyl-3-isopropyl-[1,2,4]triazolo[4,3-b]pyridazine-6,8-diamine]",10 to 100,4.17,
"CC(C)c1nnc2c(NCc3ccccc3)cc(NC3CCCCCC3)nn12 [compound 121, N8-benzyl-N6-cycloheptyl-3-isopropyl-[1,2,4]triazolo[4,3-b]pyridazine-6,8-diamine]",10 to 100,4.57,
"CC(C)c1nnc2c(NCc3ccccc3)cc(NCC3CC3)nn12 [compound 122, N8-benzyl-N6-(cyclopropylmethyl)-3-isopropyl-[1,2,4]triazolo[4,3-b]pyridazine-6,8-diamine]",10 to 100,3.33,
CC(C)c1nnc2c(NCc3ccccc3)cc(NCC3CCC3)nn12 [compound 123],,3.86,10 to 100
"c1ccc(CNc2cc(NC3CC4(CCC4)C3)nn3c(C4CC4)nnc23)nc1 [compound 205, 3-cyclopropyl-N8-(pyridin-2-ylmethyl)-N6-(spiro[3.3]heptan-2-yl)-[1,2,4]triazolo[4,3-b]pyridazine-6,8-diamine]",1 to 10,,
"c1ccc(CNc2cc(N3CCCCC3)nn3c(C4CC4)nnc23)nc1 [compound 207, 3-cyclopropyl-6-(1-piperidyl)-N-(2-pyridylmethyl)-[1,2,4]triazolo[4,3-b]pyridazin-8-amine]",100 to 1000,,
"c1ccc(CNc2cc(NCc3ccco3)nn3c(C4CC4)nnc23)nc1 [compound 208, 3-cyclopropyl-N6-(furan-2-ylmethyl)-N8-(pyridin-2-ylmethyl)-[1,2,4]triazolo[4,3-b]pyridazine-6,8-diamine]",1 to 10,,
"c1ccc(CNc2cc(N[C@@H]3CCCOC3)nn3c(C4CC4)nnc23)nc1 [compound 214, (R)-3-cyclopropyl-N8-(pyridin-2-ylmethyl)-N6-(tetrahydro-2H-pyran-3-yl)-[1,2,4]triazolo[4,3-b]pyridazine-6,8-diamine]",100 to 1000,,
"CCC(CC)Nc1cc(Nc2ccc(OC)nn2)c2nnc(C3CC3)n2n1 [compound 215, 3-cyclopropyl-N8-(6-methoxypyridazin-3-yl)-N6-(pentan-3-yl)-[1,2,4]triazolo[4,3-b]pyridazine-6,8-diamine]",< 1,,
"CCC(CC)Nc1cc(NCCc2ccccc2)c2nnc(C3CC3)n2n1 [compound 217, 3-cyclopropyl-N6-(pentan-3-yl)-N8-phenethyl-[1,2,4]triazolo[4,3-b]pyridazine-6,8-diamine]",1 to 10,,
